pKd: −log10 of the molar value.
Tests used:
[1] = biological target: T1, RelTt (Thermus thermophilus, UniProt Q5SHL3); test: ppGpp synthetase activity; format: biochemical; conditions: enzyme alone (also with 70S IC and deacylated tRNAVal)
T1 sequence (Q5SHL3 1-727): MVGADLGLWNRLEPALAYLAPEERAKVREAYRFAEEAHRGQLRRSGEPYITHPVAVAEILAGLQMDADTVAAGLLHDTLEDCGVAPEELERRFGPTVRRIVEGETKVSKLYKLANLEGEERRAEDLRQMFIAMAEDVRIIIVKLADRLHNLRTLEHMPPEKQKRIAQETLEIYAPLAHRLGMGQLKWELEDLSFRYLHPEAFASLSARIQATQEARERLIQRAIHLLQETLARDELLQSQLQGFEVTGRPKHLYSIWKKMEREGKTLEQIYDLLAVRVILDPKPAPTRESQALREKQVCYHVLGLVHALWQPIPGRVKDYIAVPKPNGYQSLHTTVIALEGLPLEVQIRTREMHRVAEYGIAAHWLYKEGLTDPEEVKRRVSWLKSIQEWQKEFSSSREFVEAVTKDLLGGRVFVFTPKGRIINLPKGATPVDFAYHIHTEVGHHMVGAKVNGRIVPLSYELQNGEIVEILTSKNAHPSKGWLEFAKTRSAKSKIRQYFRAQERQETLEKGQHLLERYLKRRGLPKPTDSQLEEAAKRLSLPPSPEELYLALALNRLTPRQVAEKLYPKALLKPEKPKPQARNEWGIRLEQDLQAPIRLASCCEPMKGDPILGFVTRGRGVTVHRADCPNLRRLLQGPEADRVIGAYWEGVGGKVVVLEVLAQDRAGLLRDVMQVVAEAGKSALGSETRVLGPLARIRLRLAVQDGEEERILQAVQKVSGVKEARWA

[2] = biological target: T2, RelTt^NTD (Thermus thermophilus, UniProt Q5SHL3); test: isothermal titration calorimetry; format: binding
T2 sequence (Q5SHL3 1-355): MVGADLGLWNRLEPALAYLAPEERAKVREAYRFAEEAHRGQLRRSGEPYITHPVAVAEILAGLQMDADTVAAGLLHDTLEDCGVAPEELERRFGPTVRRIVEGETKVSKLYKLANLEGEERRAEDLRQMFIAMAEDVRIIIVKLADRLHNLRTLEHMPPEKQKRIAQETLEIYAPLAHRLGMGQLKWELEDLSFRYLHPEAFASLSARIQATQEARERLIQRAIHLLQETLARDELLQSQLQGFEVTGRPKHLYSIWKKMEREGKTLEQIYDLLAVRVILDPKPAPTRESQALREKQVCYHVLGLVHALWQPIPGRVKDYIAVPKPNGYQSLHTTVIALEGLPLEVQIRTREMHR

| Structure (SMILES) | ppGpp synthetase activity [1] | pKd [2] |
| --- | --- | --- |
| Nc1nc2c(ncn2[C@@H]2O[C@H](COP(=O)(O)OP(=O)(O)O)[C@@H](OP(=O)(O)OP(=O)(O)O)[C@H]2O)c(=O)[nH]1 [ppGpp] | ppGpp synthetase activity of RelTt | – |
| Nc1ncnc2c1ncn2[C@@H]1O[C@H](COP(=O)(O)CP(=O)(O)OP(=O)(O)O)[C@@H](O)[C@H]1O [APCPP] | – | ~4.30 |
